# Results published in PubChem BioAssay (NCI).
#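 Assay format: 96-well plates, 48-hour exposure. The concentration for 50% growth inhibition is given as GI50. TGI: total growth inhibition.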
# Assays:
# Assay in all cases: NCI tumour cell line growth inhibition, 48 h
# A549 NSCLC = test system: A549 NSCLC
# SN12C renal = test system: SN12C renal
# OVCAR-3 ovarian = test system: OVCAR-3 ovarian
# MDA-MB-231 breast = test system: MDA-MB-231 breast
# SK-MEL-2 melanoma = test system: SK-MEL-2 melanoma
# CCRF-CEM leukemia = test system: CCRF-CEM leukemia
# SNB-75 CNS = test system: SNB-75 CNS
# MOLT-4 leukemia = test system: MOLT-4 leukemia
# NCI-H23 lung = test system: NCI-H23 lung
# HCC-2998 colon = test system: HCC-2998 colon
# RXF 393 renal = test system: RXF 393 renal
# HCT-15 colon = test system: HCT-15 colon
# M14 melanoma = test system: M14 melanoma
# BT-549 breast = test system: BT-549 breast
# NCI-H460 lung = test system: NCI-H460 lung
# MCF7 breast = test system: MCF7 breast
# SF-295 CNS = test system: SF-295 CNS
# SW-620 colon = test system: SW-620 colon
# NCI/ADR-RES ovarian = test system: NCI/ADR-RES ovarian
# IGROV1 ovarian = test system: IGROV1 ovarian
# UACC-62 melanoma = test system: UACC-62 melanoma
# SF-539 CNS = test system: SF-539 CNS
# KM12 colon = test system: KM12 colon
# CAKI-1 renal = test system: CAKI-1 renal
# UACC-257 melanoma = test system: UACC-257 melanoma
# A498 renal = test system: A498 renal
# HL-60(TB) leukemia = test system: HL-60(TB) leukemia
# OVCAR-4 ovarian = test system: OVCAR-4 ovarian
# NCI-H226 lung = test system: NCI-H226 lung
# RPMI-8226 leukemia = test system: RPMI-8226 leukemia
# HT29 colon = test system: HT29 colon
# NCI-H522 lung = test system: NCI-H522 lung
# DU-145 prostate = test system: DU-145 prostate
# SNB-19 CNS = test system: SNB-19 CNS
# HS 578T breast = test system: HS 578T breast
# HOP-92 NSCLC = test system: HOP-92 NSCLC
# 786-0 renal = test system: 786-0 renal
# PC-3 prostate = test system: PC-3 prostate
# TK-10 renal = test system: TK-10 renal
# SK-MEL-5 melanoma = test system: SK-MEL-5 melanoma
# ACHN renal = test system: ACHN renal
# K-562 leukemia = test system: K-562 leukemia
# OVCAR-5 ovarian = test system: OVCAR-5 ovarian
# SK-MEL-28 melanoma = test system: SK-MEL-28 melanoma
# MALME-3M melanoma = test system: MALME-3M melanoma
# SR leukemia = test system: SR leukemia
# EKVX NSCLC = test system: EKVX NSCLC
# UO-31 renal = test system: UO-31 renal
smiles,measurement,setting,value
COc1ccc(/C(C)=N/NC(=O)CSc2nc3ccccc3c(=O)n2CCc2ccc(S(N)(=O)=O)cc2)cc1,GI50,A549 NSCLC,2.1 µM
same,TGI,A549 NSCLC,4 µM
same,GI50,SN12C renal,1.89 µM
same,TGI,SN12C renal,3.75 µM
same,GI50,OVCAR-3 ovarian,1.99 µM
same,TGI,OVCAR-3 ovarian,3.85 µM
same,GI50,MDA-MB-231 breast,1.87 µM
same,TGI,MDA-MB-231 breast,3.88 µM
same,GI50,SK-MEL-2 melanoma,2.58 µM
same,TGI,SK-MEL-2 melanoma,6.68 µM
same,GI50,CCRF-CEM leukemia,4.44 µM
same,TGI,CCRF-CEM leukemia,> 100 µM
same,GI50,SNB-75 CNS,1.81 µM
same,TGI,SNB-75 CNS,4.26 µM
same,GI50,MOLT-4 leukemia,4.2 µM
same,TGI,MOLT-4 leukemia,84.2 µM
same,GI50,NCI-H23 lung,2.3 µM
same,TGI,NCI-H23 lung,5.81 µM
same,GI50,HCC-2998 colon,9.26 µM
same,TGI,HCC-2998 colon,28.6 µM
same,GI50,RXF 393 renal,1.72 µM
same,TGI,RXF 393 renal,3.29 µM
same,GI50,HCT-15 colon,4.7 µM
same,TGI,HCT-15 colon,63.7 µM
same,GI50,M14 melanoma,1.91 µM
same,TGI,M14 melanoma,3.75 µM
same,GI50,BT-549 breast,1.66 µM
same,TGI,BT-549 breast,3.74 µM
same,GI50,NCI-H460 lung,2.03 µM
same,TGI,NCI-H460 lung,3.81 µM
same,GI50,MCF7 breast,2.95 µM
same,TGI,MCF7 breast,11.2 µM
same,GI50,SF-295 CNS,1.8 µM
same,TGI,SF-295 CNS,3.86 µM
same,GI50,SW-620 colon,2.28 µM
same,TGI,SW-620 colon,5.01 µM
same,GI50,NCI/ADR-RES ovarian,11.7 µM
same,TGI,NCI/ADR-RES ovarian,> 100 µM
same,GI50,IGROV1 ovarian,1.97 µM
same,TGI,IGROV1 ovarian,3.98 µM
same,GI50,UACC-62 melanoma,2.2 µM
same,TGI,UACC-62 melanoma,4.93 µM
same,GI50,SF-539 CNS,1.69 µM
same,TGI,SF-539 CNS,3.16 µM
same,GI50,KM12 colon,2.06 µM
same,TGI,KM12 colon,3.96 µM
same,GI50,CAKI-1 renal,2.07 µM
same,TGI,CAKI-1 renal,4.53 µM
same,GI50,UACC-257 melanoma,2.39 µM
same,TGI,UACC-257 melanoma,5.57 µM
same,GI50,A498 renal,2.1 µM
same,TGI,A498 renal,4.12 µM
same,GI50,HL-60(TB) leukemia,16.6 µM
same,TGI,HL-60(TB) leukemia,> 100 µM
same,GI50,OVCAR-4 ovarian,1.77 µM
same,TGI,OVCAR-4 ovarian,3.52 µM
same,GI50,NCI-H226 lung,1.95 µM
same,TGI,NCI-H226 lung,4.18 µM
same,GI50,RPMI-8226 leukemia,2.02 µM
same,TGI,RPMI-8226 leukemia,10.6 µM
same,GI50,HT29 colon,1.95 µM
same,TGI,HT29 colon,3.7 µM
same,GI50,NCI-H522 lung,2.26 µM
same,TGI,NCI-H522 lung,6.75 µM
same,GI50,DU-145 prostate,1.77 µM
same,TGI,DU-145 prostate,3.55 µM
same,GI50,SNB-19 CNS,2.27 µM
same,TGI,SNB-19 CNS,4.78 µM
same,GI50,HS 578T breast,2.24 µM
same,TGI,HS 578T breast,6.2 µM
same,GI50,HOP-92 NSCLC,1.89 µM
same,TGI,HOP-92 NSCLC,4 µM
same,GI50,786-0 renal,1.79 µM
same,TGI,786-0 renal,3.44 µM
same,GI50,PC-3 prostate,1.98 µM
same,TGI,PC-3 prostate,4.15 µM
same,GI50,TK-10 renal,1.95 µM
same,TGI,TK-10 renal,3.98 µM
same,GI50,SK-MEL-5 melanoma,1.64 µM
same,TGI,SK-MEL-5 melanoma,3.06 µM
same,GI50,ACHN renal,1.73 µM
same,TGI,ACHN renal,3.27 µM
same,GI50,K-562 leukemia,2.87 µM
same,TGI,K-562 leukemia,> 100 µM
same,GI50,OVCAR-5 ovarian,1.61 µM
same,TGI,OVCAR-5 ovarian,3.23 µM
same,GI50,SK-MEL-28 melanoma,1.75 µM
same,TGI,SK-MEL-28 melanoma,3.3 µM
same,GI50,MALME-3M melanoma,1.72 µM
same,TGI,MALME-3M melanoma,3.44 µM
same,GI50,SR leukemia,2.52 µM
same,TGI,SR leukemia,> 100 µM
same,GI50,EKVX NSCLC,2.85 µM
same,TGI,EKVX NSCLC,12.8 µM
same,GI50,UO-31 renal,1.56 µM
same,TGI,UO-31 renal,3.28 µM
